This is an account of results in paper PMC7407272, “Induction of Lysosome Membrane Permeabilization as a Therapeutic Strategy to Target Pancreatic Cancer Stem Cells” (Cancers, 2020).

One assay concerns PDAC1 xenografts. Kind of assay: PDX treatment in nude mice. Type of assay: in vivo, NU-Foxn1nu nude mice. As to conditions: PDAC1 PDX; GEM 125 mg/kg i.p. biweekly, SIR 30 mg/kg oral gavage; 23 days. As for the experimental part: (§1) Cells were analyzed with a 4-laser Attune NxT Acoustic Cytometer (ThermoFisher Scientific). Cells and digested tumors (as described in [41]) were resuspended in FLOW buffer (1X PBS; 3 mM EDTA (v/v); 3% FBS (v/v)), and the following fluorescently-tagged antibodies were used to label cells for 30 min at 4 °C: Mouse monoclonal anti-human CD133-PE (1:20, Cat no. 130-110-962, Miltenyi, Bergisch Gladbach, Germany), Mouse monoclonal anti-human CD133-APC (1:20, Cat no. 130-111-080, Miltenyi, Bergisch Gladbach, Germany), mouse monoclonal anti-human C-X-C chemokine receptor type 4- Phycoerythrin (CXCR4-PE) (1:20, Cat no. 130-117-354, Miltenyi, Bergisch Gladbach, Germany), or mouse monoclonal anti-human Epithelial cell adhesion molecule-fluorescein isothiocyanate (EpCAM-FITC) (1:20, Cat no. 130-111-115, Miltenyi, Bergisch Gladbach, Germany). Autofluorescent cells were excited with blue laser 488nm and selected as the intersection with the filters 530/40 and 580/30 as previously described. For lysosomes quantification, Acridine Orange (AO) (A1301, Thermo Fisher Scientific, Waltham, MA, USA) or Lysotracker Deep Red (DR) (L12492, Molecular probes, Life Technologies, Waltham, MA, USA) were used. AO fluorescence was assessed with two combinations of excitation and emission spectra: BL1 […] BL3 (Ex488/Em695/40, equal to the far-red channel (>670 nm)) Lysotracker DR fluorescence was assessed with RL1 (Ex638/Em670/14). Bafilomycin A1 (100 nM, Calbiochem, San Diego, CA, USA) was included as a positive control for lysosome disruption. For Annexin V staining, floating and attached cells were pooled and resuspended in 1× AnnexinV staining buffer containing AnnexinV-APC diluted 1:20 (Biotium, Freemont, CA, USA) and incubated for 20 min at room temperature prior to flow cytometric analysis. For all assays, DAPI was used to mark and exclude dead cells, and data were analyzed using the software FlowJo v9.3 (Tree Star Inc., Ashland, OR, USA).
(§2) Female 6- to 8-week-old NU-Foxn1nu nude mice (Envigo, Spain) were subcutaneously injected with control or pre-treated 1 × 10^4 PDAC cells in 50 µL of Matrigel^TM (Corning). Tumor growth was monitored bi-weekly for up to 10 weeks. For Siramesine experiments, mice were subcutaneously implanted with PDAC1 and PDAC3 PDXs. After 4 weeks of tumor growth, mice were randomized into treatment groups (5 mice per group). Mice were treated with Siramesine twice a week (30 mg/kg by oral gavage formulated in 0.5% methylcellulose 15 cP in 0.9% NaCl solution) for ~4 weeks. Gemcitabine (GEMZAR®, Eli Lilly, Indianapolis, IN, USA) was administered twice a week (125 mg/kg i.p.) for ~4 weeks. Tumor volumes (mm^3) were determined twice per week using a digital caliper. Mice were sacrificed at 24 days post treatment initiation and tumors were extracted and analyzed by flow cytometry as described above. For second generation tumor formation, 1000 and 100 cells of indicated treatment groups were resuspended in Matrigel ^TM and injected subcutaneously in recipient NU-Foxn1nu nude mice and tumor formation was monitored for 10 weeks. Mice were housed according to institutional guidelines and all experiments were performed in compliance with the institutional guidelines for the welfare of experimental animals approved by the Universidad Autónoma de Madrid Ethics Committee (CEI 60-1057-A068) or by the Instituto de Salud Carlos III Ethics Committee (CBA12_2014-v3) and La Comunidad de Madrid (PROEX 335/14 or PROEX 53/14) and in accordance with the guidelines for Ethical Conduct in the Care and Use of Animals as stated in The International Guiding Principles for Biomedical Research involving Animals, developed by the Council for International Organizations of Medical Sciences (CIOMS).

The next assay concerns PDAC3 xenografts. Kind of assay: PDX treatment in nude mice. Type of assay: in vivo, NU-Foxn1nu nude mice. The protocol: as §1, §2
The target in another assay is T1, PFTK1 (Homo sapiens, UniProt O94921).
T1 construct: purchased DiscoveRx KINOMEscan
The assay is described as follows: KINOMEscan. The assay is classed as binding. To be noted: read-out: % Ctrl.

A further assay deals with T2, MAP3K3 (Homo sapiens, UniProt Q99759).
T2 construct: purchased DiscoveRx KINOMEscan
The assay is described as follows: KINOMEscan. Type of assay: binding. As to conditions: read-out: % Ctrl.

A further assay addresses T3, SBK1 (Homo sapiens, UniProt Q52WX2).
T3 construct: purchased DiscoveRx KINOMEscan
The assay is described as follows: KINOMEscan. Type of assay: binding. To be noted: read-out: % Ctrl.

Another assay addresses T4, NEK2 (Homo sapiens, UniProt P51955).
T4 construct: purchased DiscoveRx KINOMEscan
The assay is described as follows: KINOMEscan. Type of assay: binding. As to conditions: read-out: % Ctrl.

The next assay concerns the target T5, MARK3 (Homo sapiens, UniProt P27448).
T5 construct: purchased DiscoveRx KINOMEscan
Kind of assay: KINOMEscan. Type of assay: binding. As to conditions: read-out: % Ctrl.

Another assay concerns the target T6, PCTK3 (Homo sapiens, UniProt Q07002).
T6 construct: purchased DiscoveRx KINOMEscan
Kind of assay: KINOMEscan. The assay is classed as binding. As to conditions: read-out: % Ctrl.

Another assay has as its target T7, EPHA7 (Homo sapiens, UniProt Q15375).
T7 construct: purchased DiscoveRx KINOMEscan
Kind of assay: KINOMEscan. The assay is classed as binding. To be noted: read-out: % Ctrl.

The target in a further assay is T8, MET (Homo sapiens, UniProt P08581).
T8 construct: purchased DiscoveRx KINOMEscan
Kind of assay: KINOMEscan. Type of assay: binding. As to conditions: read-out: % Ctrl.

In the next assay the target is T9, CSNK2A2 (Homo sapiens, UniProt P19784).
T9 construct: purchased DiscoveRx KINOMEscan
The assay is described as follows: KINOMEscan. The assay is classed as binding. As to conditions: read-out: % Ctrl.

The target of the next assay is T10, DAPK2 (Homo sapiens, UniProt Q9UIK4).
T10 construct: purchased DiscoveRx KINOMEscan
The assay is described as follows: KINOMEscan. Type of assay: binding. As to conditions: read-out: % Ctrl.

The next assay addresses T11, ERK1 (Homo sapiens, UniProt P27361).
T11 construct: purchased DiscoveRx KINOMEscan
Kind of assay: KINOMEscan. To be noted: read-out: % Ctrl. The assay is classed as binding.

The target of another assay is T12, MLK2 (Homo sapiens, UniProt Q02779).
T12 construct: purchased DiscoveRx KINOMEscan
Kind of assay: KINOMEscan. As to conditions: read-out: % Ctrl. Type of assay: binding.

A further assay deals with T13, LRRK2(G2019S) (Homo sapiens, UniProt Q5S007, G2019S).
T13 construct: purchased DiscoveRx KINOMEscan
Kind of assay: KINOMEscan. As to conditions: read-out: % Ctrl. Type of assay: binding.

For the next assay, the target named is T14, ERK8 (Homo sapiens, UniProt Q8TD08).
T14 construct: purchased DiscoveRx KINOMEscan
Kind of assay: KINOMEscan. Type of assay: binding. As to conditions: read-out: % Ctrl.

For a further assay, the target named is T15, FGFR3(G697C) (Homo sapiens, UniProt P22607, G697C).
T15 construct: purchased DiscoveRx KINOMEscan
Kind of assay: KINOMEscan. Type of assay: binding. As to conditions: read-out: % Ctrl.

A further assay deals with T16, PFTAIRE2 (Homo sapiens, UniProt Q96Q40).
T16 construct: purchased DiscoveRx KINOMEscan
Kind of assay: KINOMEscan. The assay is classed as binding. To be noted: read-out: % Ctrl.

The target in another assay is T17, PIK4CB (Homo sapiens, UniProt Q9UBF8).
T17 construct: purchased DiscoveRx KINOMEscan
Kind of assay: KINOMEscan. To be noted: read-out: % Ctrl. Type of assay: binding.

T12 sequence (Q02779 whole entry): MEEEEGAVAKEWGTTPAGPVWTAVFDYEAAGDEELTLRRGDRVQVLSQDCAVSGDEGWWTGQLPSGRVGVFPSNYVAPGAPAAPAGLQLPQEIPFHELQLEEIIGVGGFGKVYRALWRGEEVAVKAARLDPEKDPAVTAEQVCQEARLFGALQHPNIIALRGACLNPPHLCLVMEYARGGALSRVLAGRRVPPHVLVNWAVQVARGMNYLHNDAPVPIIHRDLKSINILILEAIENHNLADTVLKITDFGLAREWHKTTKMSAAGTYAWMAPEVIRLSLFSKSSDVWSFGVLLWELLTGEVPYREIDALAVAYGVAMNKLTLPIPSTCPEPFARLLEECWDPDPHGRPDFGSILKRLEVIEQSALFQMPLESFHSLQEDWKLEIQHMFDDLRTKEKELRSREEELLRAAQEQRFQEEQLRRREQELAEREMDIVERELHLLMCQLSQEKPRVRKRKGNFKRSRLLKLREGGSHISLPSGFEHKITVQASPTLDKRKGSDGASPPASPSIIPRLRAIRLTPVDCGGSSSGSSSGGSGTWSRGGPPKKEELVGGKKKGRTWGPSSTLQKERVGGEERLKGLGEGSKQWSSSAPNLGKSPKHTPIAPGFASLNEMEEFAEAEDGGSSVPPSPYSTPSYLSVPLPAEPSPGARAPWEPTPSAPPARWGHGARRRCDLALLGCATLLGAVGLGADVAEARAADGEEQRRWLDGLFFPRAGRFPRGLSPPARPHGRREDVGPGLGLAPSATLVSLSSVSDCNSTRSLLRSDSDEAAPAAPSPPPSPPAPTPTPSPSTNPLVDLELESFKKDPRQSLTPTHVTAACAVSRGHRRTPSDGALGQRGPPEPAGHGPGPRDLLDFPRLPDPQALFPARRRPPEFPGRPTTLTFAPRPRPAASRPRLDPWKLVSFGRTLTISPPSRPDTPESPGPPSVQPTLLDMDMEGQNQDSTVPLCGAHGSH
T11 sequence (P27361 whole entry): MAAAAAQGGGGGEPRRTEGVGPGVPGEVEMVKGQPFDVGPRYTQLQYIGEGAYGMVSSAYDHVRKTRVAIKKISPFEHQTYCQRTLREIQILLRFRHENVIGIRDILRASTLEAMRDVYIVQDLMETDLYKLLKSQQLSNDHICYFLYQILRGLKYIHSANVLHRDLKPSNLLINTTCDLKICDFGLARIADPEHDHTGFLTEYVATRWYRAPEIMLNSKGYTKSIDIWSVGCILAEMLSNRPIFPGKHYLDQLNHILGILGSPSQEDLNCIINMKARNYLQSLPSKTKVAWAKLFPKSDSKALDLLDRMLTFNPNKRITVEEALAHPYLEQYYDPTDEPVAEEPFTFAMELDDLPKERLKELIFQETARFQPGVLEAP
T9 sequence (P19784 whole entry): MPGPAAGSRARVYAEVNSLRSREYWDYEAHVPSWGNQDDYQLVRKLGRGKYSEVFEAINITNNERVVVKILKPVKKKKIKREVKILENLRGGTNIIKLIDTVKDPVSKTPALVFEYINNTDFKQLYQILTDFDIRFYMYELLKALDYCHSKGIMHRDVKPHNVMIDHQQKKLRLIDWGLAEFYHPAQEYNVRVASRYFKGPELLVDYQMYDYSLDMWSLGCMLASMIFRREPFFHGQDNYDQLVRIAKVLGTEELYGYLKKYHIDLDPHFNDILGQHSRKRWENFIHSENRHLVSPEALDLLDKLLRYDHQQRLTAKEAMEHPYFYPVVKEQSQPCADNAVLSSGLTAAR
T1 sequence (O94921 whole entry): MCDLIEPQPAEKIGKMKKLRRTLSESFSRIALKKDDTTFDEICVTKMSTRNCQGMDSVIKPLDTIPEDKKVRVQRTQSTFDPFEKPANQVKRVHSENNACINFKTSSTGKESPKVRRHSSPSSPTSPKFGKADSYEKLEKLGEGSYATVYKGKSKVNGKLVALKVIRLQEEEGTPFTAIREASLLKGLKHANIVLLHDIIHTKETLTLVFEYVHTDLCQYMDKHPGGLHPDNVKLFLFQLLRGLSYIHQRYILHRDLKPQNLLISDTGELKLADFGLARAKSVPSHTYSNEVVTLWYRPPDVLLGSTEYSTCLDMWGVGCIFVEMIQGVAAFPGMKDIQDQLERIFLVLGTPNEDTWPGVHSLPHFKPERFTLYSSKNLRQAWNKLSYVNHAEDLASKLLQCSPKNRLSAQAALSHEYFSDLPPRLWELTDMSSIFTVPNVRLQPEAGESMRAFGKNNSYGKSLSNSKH
T8 sequence (P08581 25-1390): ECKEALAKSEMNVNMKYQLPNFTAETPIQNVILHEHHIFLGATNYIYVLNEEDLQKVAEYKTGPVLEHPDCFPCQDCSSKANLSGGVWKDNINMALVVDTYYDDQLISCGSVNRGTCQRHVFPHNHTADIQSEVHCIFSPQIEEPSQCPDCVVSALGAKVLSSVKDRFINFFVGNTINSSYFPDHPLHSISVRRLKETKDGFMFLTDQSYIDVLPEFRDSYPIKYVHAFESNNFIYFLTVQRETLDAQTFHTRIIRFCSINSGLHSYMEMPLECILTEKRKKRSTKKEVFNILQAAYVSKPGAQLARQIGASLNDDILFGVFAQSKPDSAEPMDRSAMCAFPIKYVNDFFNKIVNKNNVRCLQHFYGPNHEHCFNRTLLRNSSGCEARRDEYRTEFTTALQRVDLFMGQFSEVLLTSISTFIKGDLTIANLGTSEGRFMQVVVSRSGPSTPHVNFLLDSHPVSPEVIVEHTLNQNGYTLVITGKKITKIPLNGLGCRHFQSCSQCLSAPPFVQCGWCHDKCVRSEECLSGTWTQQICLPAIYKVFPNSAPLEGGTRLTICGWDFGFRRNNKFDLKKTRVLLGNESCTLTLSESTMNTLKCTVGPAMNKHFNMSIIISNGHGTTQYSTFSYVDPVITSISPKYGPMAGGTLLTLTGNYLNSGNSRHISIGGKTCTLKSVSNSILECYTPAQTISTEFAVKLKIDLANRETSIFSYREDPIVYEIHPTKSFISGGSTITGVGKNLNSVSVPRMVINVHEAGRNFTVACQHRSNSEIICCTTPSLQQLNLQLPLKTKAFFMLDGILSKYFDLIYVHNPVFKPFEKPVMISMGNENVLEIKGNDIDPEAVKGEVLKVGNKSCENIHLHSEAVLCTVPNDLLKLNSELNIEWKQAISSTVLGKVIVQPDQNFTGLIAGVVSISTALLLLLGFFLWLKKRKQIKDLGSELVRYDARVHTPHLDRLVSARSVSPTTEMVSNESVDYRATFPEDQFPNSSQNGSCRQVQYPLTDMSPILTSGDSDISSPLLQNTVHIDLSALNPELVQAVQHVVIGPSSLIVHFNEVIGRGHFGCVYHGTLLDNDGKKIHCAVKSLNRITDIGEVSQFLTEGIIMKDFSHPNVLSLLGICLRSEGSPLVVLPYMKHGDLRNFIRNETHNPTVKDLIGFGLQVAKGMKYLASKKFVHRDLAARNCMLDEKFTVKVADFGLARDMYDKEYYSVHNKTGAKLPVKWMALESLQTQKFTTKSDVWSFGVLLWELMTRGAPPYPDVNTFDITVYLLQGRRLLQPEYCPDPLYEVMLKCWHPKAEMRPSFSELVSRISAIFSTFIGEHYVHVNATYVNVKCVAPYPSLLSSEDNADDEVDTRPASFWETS
T10 sequence (Q9UIK4 whole entry): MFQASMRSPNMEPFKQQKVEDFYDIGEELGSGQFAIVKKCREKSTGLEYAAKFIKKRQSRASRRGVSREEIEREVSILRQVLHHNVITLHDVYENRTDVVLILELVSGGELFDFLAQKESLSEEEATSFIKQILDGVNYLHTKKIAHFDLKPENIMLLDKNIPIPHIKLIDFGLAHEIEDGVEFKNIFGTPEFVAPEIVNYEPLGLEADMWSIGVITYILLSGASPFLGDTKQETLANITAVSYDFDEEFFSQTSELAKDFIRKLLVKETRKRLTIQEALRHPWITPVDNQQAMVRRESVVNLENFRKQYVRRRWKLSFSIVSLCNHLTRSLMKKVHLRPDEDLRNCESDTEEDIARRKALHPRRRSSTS
T2 sequence (Q99759 whole entry): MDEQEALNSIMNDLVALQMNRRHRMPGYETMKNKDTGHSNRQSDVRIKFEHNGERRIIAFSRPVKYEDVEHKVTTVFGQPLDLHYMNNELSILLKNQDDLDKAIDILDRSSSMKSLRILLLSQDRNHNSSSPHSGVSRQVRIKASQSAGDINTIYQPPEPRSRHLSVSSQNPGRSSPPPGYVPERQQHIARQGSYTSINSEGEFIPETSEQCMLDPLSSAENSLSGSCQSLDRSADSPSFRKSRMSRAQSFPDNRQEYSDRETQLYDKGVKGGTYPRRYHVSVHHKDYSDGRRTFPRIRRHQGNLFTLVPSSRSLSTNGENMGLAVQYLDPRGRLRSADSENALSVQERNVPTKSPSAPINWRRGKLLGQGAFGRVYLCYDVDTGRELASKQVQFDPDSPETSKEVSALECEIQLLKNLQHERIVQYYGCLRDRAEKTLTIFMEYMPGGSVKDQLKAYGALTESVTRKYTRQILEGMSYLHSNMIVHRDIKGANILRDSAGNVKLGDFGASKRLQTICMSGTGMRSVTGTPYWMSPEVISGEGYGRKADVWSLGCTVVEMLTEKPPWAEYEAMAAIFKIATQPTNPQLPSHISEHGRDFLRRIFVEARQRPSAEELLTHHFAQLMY
T16 sequence (Q96Q40 whole entry): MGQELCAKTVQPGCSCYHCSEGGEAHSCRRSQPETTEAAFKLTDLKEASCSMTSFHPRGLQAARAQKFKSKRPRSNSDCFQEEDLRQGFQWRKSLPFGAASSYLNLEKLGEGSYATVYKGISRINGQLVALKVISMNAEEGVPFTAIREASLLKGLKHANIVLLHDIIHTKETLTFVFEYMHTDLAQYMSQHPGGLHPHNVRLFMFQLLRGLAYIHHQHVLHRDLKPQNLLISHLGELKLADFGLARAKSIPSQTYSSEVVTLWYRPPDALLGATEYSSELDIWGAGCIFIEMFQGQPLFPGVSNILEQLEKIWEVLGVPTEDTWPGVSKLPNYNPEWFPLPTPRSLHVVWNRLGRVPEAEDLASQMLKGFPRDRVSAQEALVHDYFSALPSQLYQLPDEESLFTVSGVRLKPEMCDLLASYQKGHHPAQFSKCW

As for `Fc1ccc(-n2cc(CCCCN3CCC4(CC3)OCc3ccccc34)c3ccccc32)cc1` [siramesine], the “tumor volume versus control” value in the assay on PDAC1 xenografts was “no significant differences”; with PDAC3 xenografts (PDAC3 PDX, GEM 125 mg/kg i.p. biweekly, SIR 30 mg/kg oral gavage, 23 days), “no significant differences”. Also, the “percentage of CD133+ and CD133+/CXCR4+ in tumors” value in the assay on PDAC3 xenografts (PDAC3 tumors, 30 mg/kg) is listed as “reduce”.
As for `CN1CCC(CNc2ccc3ncc(C(=O)Nc4cccc(OC(F)(F)F)c4)n3n2)CC1` [Cpd 2], the remaining binding at 1 µM was determined as 97% on PFTK1; 96% on MAP3K3; 100% on SBK1; 94% at NEK2; 100% on MARK3; 100% at PCTK3. Moreover, the remaining binding at 1 µM at EPHA7 turned out to be 100%; on MET, 100%; at CSNK2A2 it was 39%; at DAPK2, 89%; on ERK1, 100%; on MLK2, 100%. Further, the remaining binding at 1 µM on LRRK2(G2019S) was found to be 93%; at ERK8, 96%; at FGFR3(G697C), 99%; on PFTAIRE2, 92%; at PIK4CB, 99%.
